Data taken from patent US5989846A, “Assays to identify inducers of plant defense resistance” (Rutgers, The State University of New Jersey, priority 1995, dated 1999).

What was measured:
[1] = molecular target: salicylic acid binding protein; assay: Scatchard analysis of [14C] salicylic acid binding; details: tobacco SABP; [14C] salicylic acid 2 to 70 μM
Method: Kd is defined herein as the concentration of salicylic acid needed to occupy 50% of the binding sites on the salicylic acid binding protein when the binding process reaches its equilibrium. Thus, a smaller value of Kd indicates a stronger interaction between salicylic acid and salicylic acid binding protein and vice versa. Kd is determined by measuring the amounts of salicylic acid bound to salicylic acid binding-protein at various concentrations of salicylic acid and then plotting the ratio of bound to free, salicylic acid concentrations versus bound salicylic acid concentrations to give a linear plot with a slope of -1/Kd. […]
A key element during the characterization and the purification process is a simple, inexpensive, sensitive and reliable method for determining the salicylic acid binding activity. […] (specifically radioactivity 55 Ci/mol; purchased from New England Nuclear), 150 μl of proteins binding sample was loaded onto the tube column, which was then rapidly centrifuged for 2 minutes at full speed and the solution of proteins and bound [^14 C-salicylic acid] that was excluded from the gel was collected into another tube that had been placed under the tube column during the centrifugation. […]

[2] = molecular target: cucumber salicylic acid binding protein; assay: Salicylic acid binding activity from cucumber; details: cucumber derived salicylic acid binding protein
Description: Several, of the MAbs that bind to the tobacco 57 kDa protein and 280 kDa complex also recognize a 57 kDa protein in fresh homogenates from cucumbers. The salicylic acid binding activity from cucumber has similar affinity (Kd) and specificity as the tobacco salicylic acid binding protein. Like the tobacco salicylic acid binding protein, the cucumber salicylic acid binding protein also has a large native molecular weight (approximately 200 kDa). Thus, it appears that the cucumber salicylic acid binding protein is also a complex composed of multiple subunits at least one of which is probably the 57 kDa protein recognized by the MAbs made against the tobacco salicylic acid binding protein. It should be noted, however, that there may be some minor variation in molecular weight and Kd for salicylic acid binding protein from one plant species to the next. For example, cucumber derived salicylic acid binding protein appears to have an apparent average native molecular weight of about 200 kDa and a Kd of about 30±5 μM.

catalase = assay: Catalase activity of crude extracts; assay type: biochemical
Description: In the presence of SA, the catalase activity of the highly purified SABP was inhibited by 80% (Table 6). A similar level of inhibition of catalase activity by SA (^- 70%) was also observed with crude extracts; inhibition appeared to be reversible since the catalase activity could be largely recovered by extensive dialysis. To assess the functional relevance of catalase inhibition by SA, several SA analogues, with or without biological activity in inducing plant PR genes and disease resistance, were compared for their ability to inhibit the catalase activity of SABP (Table 6).

H2 O2 = assay: Abundance of H2O2 in treated tobacco leaves; assay type: in vivo; details: FIG. 11
Description: The abundance of H2 O2 increased in SA- or 3AT-treated tobacco leaves by 50-60% over the control levels observed in water-treated leaves. […] Thus, elevated levels of H2 O2, and in turn, enhanced oxidative stress in vivo, were consistent with inhibition of catalase activity by SA observed in vitro.

[3] = system: catalases from non-plant sources; assay: Inhibition of non-plant catalases by salicylic acid; assay type: biochemical; details: catalases from fungi and animals
Description: Genes or cDNA copies for several of these catalases have been cloned (e.g. Scandalios, J. G. et al., Proc. Natl. Acad. Sci. USA, 77 (1980) 5360-5364; Bell, G. I. et al., Nucleic Acids Res., 14, (1986), 5561-5562; Hartig, A. et al., Eur. J. Biochem, 160, (1986) 487-490). A gene encoding one of these catalases can be introduced and expressed in a plant in the sense orientation using appropriate regulatory sequences (e.g. CaMV 35S promoter and nopaline synthase cleavage and polyadenylation signal) and vectors (e.g. PCGN 1540 or pCIB3064) as described in Example 25.

For `O=C(O)c1ccccc1O` [salicylic acid, 2-hydroxybenzoic acid], the Kd [1] was 14 ± 5 µM, the Kd [2] was roughly 30 µM and the “Inhibition of catalase activity” value (catalase; crude extracts) was roughly 70%. The “Reversibility of catalase inhibition” value (catalase; extensive dialysis) was “reversible”, the “Increase in abundance of H2O2 over water-treated leaves” value (H2 O2) was 50-60% and the “Sensitivity of non-plant catalases to inhibition” value [3] was “insensitive to inhibition”.
